Test results from patent US20250136607A1 (REGOR PHARMACEUTICALS, INC., priority 2021, published 2025).
Read-outs that look alike come from different tables or passages of the source.

Molecular target: Protein arginine deiminase 4 (PAD4) (Homo sapiens, UniProt Q9UM07)
Experiment: PAD4 ammonia release assay
Format: biochemical
Summary of the method: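 PAD4 (20 nM, 2× working solution) was preincubated with compound for 15 min at RT in 100 mM HEPES pH 8.0, 2 mM CaCl2, 50 mM NaCl, 0.1 mM TCEP, BSA at 1.25% DMSO. BAEE (600 μM, 2× mix) reacted 60 min, then OPA/DTT/EDTA detection for 120 min. IC50 came from a 4-parameter fit, normalized to 50 μM reference (100%) and DMSO (0%).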

[1] = PAD4 ammonia release assay, BAEE substrate, 60 min at RT, read-out: Average IC50 Abs
[2] = PAD4 activity comparison, read-out: PAD4 Ammonia assay IC50

Sequence of Protein arginine deiminase 4 (PAD4) (Q9UM07 whole entry): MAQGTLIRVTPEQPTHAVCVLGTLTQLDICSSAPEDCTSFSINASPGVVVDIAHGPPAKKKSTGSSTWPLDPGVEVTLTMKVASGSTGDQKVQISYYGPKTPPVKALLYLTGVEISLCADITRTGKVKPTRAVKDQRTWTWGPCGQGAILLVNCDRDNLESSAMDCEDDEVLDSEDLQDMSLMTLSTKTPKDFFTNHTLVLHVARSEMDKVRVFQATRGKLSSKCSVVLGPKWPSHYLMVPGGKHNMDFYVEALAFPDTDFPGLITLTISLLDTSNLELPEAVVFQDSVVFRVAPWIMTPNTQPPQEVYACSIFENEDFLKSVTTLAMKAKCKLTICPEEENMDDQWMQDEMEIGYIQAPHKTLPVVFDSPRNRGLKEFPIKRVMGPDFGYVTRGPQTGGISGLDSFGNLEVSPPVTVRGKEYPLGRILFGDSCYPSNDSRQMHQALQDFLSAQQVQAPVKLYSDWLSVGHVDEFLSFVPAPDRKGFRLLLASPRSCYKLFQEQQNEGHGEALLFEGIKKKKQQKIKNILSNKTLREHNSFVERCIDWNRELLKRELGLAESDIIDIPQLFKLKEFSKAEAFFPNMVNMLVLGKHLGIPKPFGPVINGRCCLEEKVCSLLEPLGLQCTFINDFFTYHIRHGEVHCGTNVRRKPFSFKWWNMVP

Row | IC50 [1] [nM] | IC50 [2] [nM] | Compound
1 | 100 to 500 |  | Cn1c(-c2cc3ccc4c(c3n2CC2CC2)CCN(C2CC2)C4)nc2cc(C(=O)N3C[C@H]4CC[C@@H]3[C@@H]4N)cc(F)c21 [Example 155, ((1R,4R,7R)-7-amino-2-azabicyclo[2.2.1]heptan-2-yl)(2-(7-cyclopropyl-1-(cyclopropylmethyl)-6,7,8,9-tetrahydro-1H-pyrrolo[2,3-f]isoquinolin-2-yl)-7-fluoro-1-methyl-1H-benzo[d]imidazol-5-yl)methanone]
2 | 500 to 5000 |  | Cc1nnc2c3c(ccn12)cc(-c1nc2cc(C(=O)N4C[C@H]5CC[C@@H]4[C@@H]5N)cc(F)c2n1C)n3CC1CC1 [Example 159, [(1R,4R,7R)-7-amino-2-azabicyclo[2.2.1]heptan-2-yl]-[2-[12-(cyclopropylmethyl)-5-methyl-3,4,6,12-tetrazatricyclo[7.3.0.02,6]dodeca-1(9), 2,4,7,10-pentaen-11-yl]-7-fluoro-1-methyl-benzimidazol-5-yl]methanone]
3 | 500 to 5000 |  | Cn1c(-c2cc3ccn4c(=O)[nH]nc4c3n2CC2CC2)nc2cc(C(=O)N3C[C@H]4CC[C@@H]3[C@@H]4N)cc(F)c21 [Example 160, 8-(5-((1R,4R,7R)-7-amino-2-azabicyclo[2.2.1]heptane-2-carbonyl)-7-fluoro-1-methyl-1H-benzo[d]imidazol-2-yl)-9-(cyclopropylmethyl)-2,9-dihydro-3H-pyrrolo[2,3-c][1,2,4]triazolo[4,3-a]pyridin-3-one]
4 | 500 to 5000 |  | Cn1c(-c2cc3ccc4c(c3n2CC2CC2)NCC[S+]4[O-])nc2cc(C(=O)N3C[C@H]4CC[C@@H]3[C@@H]4N)cc(F)c21 (stereo partly drawn) [Example 162, ((1R,4R,7R)-7-amino-2-azabicyclo[2.2.1]heptan-2-yl)(2-(9-(cyclopropylmethyl)-4-oxido-1,2,3,9-tetrahydro-[1,4]thiazino[2,3-g]indol-8-yl)-7-fluoro-1-methyl-1H-benzo[d]imidazol-5-yl)methanone]
5 | 100 to 500 |  | Cn1c(-c2cc3ccc4c(c3n2CC2CC2)CCCN4)nc2cc(C(=O)N3C[C@H]4CC[C@@H]3[C@@H]4N)cc(F)c21 [Example 163, ((1R,4R,7R)-7-amino-2-azabicyclo[2.2.1]heptan-2-yl)(2-(1-(cyclopropylmethyl)-6,7,8,9-tetrahydro-1H-pyrrolo[2,3-f]quinolin-2-yl)-7-fluoro-1-methyl-1H-benzo[d]imidazol-5-yl)methanone]
6 | ≤ 100 |  | Cn1c(-c2cc3ccc4cc[nH]c4c3n2CC2CCC2)nc2cc(C(=O)N3C[C@H]4CC[C@@H]3[C@@H]4N)cc(F)c21 [Example 165, ((1R,4R,7R)-7-amino-2-azabicyclo[2.2.1]heptan-2-yl)(2-(1-(cyclobutylmethyl)-1,8-dihydropyrrolo[3,2-g]indol-2-yl)-7-fluoro-1-methyl-1H-benzo[d]imidazol-5-yl)methanone]
7 | > 5000 | 9530 | Cn1c(-c2cc3cccc4c3n2CCN4)nc2cc(C(=O)N3CCC[C@@H](N)C3)ccc21 [Example 166, (R)-(3-aminopiperidin-1-yl)(2-(2,3-dihydro-1H-pyrrolo[1,2,3-de]quinoxalin-5-yl)-1-methyl-1H-benzo[d]imidazol-5-yl)methanone]
8 | 500 to 5000 | 4090 | CC1CNc2cccc3cc(-c4nc5cc(C(=O)N6CCC[C@@H](N)C6)ccc5n4C)n1c23 (stereo partly drawn) [Example 167, ((R)-3-aminopiperidin-1-yl)(1-methyl-2-(3-methyl-2,3-dihydro-1H-pyrrolo[1,2,3-de]quinoxalin-5-yl)-1H-benzo[d]imidazol-5-yl)methanone]
9 | 500 to 5000 | 2310 | Cn1c(-c2cc3cccc4c3n2CCN4)nc2cc(C(=O)N3C[C@H]4CC[C@@H]3[C@@H]4N)ccc21 [Example 168, ((1R,4R,7R)-7-amino-2-azabicyclo[2.2.1]heptan-2-yl)(2-(2,3-dihydro-1H-pyrrolo[1,2,3-de]quinoxalin-5-yl)-1-methyl-1H-benzo[d]imidazol-5-yl)methanone]
